The structures appear in SMILES notation. Where two headings read alike, the source gives them in different places. Bounds are passed on as bounds.

For one test, the system named is OCI-AML3 cells. The test is described as follows: OCI-AML3 cell growth inhibition, dose-response viability assay (CellTiterGlo). In kind it is cell-based. The conditions noted are these: for EC50: read-out: AML-3 EC50; for sensitivity of OCI-AML3 relative to OCI-AML5: dose-response curves OCI-AML3 and OCI-AML5. The method, then: Cell dose-response viability assays. […] In the initial screen, compounds were added to seeded cells in serial dilutions (10 dilutions, 1:3, starting from […] 20 μM), in duplicates.
(§1) The potency of the compounds of Example 6 at inhibiting OCI-AML3 cell growth was tested using a procedure similar to that described for Mutritinib in Example 1. […] Murine MLL-AF9 leukemia cells (female cells) were generated by infection with VSV-G-pseudotyped MSCV MLL-AF9 IRES Puro (subcloned from a construct by Frédéric Barabé, Laval U, Quebec, QC, Canada).
(§2) Compounds were added to seeded cells in serial dilutions from 10 μM to 0.5 nM, in duplicates or quadruplicates.
For orientation: ATP-based viability assays read luminescence as a measure of living cells.

For the next test, the system named is MLL-AF9 cells. Put plainly: MLL-AF9 leukemia cell growth inhibition, dose-response viability assay (CellTiterGlo). It counts as cell-based, murine. The conditions noted are these: read-out: MLL-AF9 EC50. The procedure: as §1, §2
Setting [1] is: Homo sapiens, OCI-AML-3, 144 h, OCI-AML3 cells, 6 days of culture, CellTiterGlo.

Consider `FC(F)(F)c1ccc(/C=C/c2nc(COc3ccc(CCCCn4ccnn4)cc3)co2)cc1` [Compound 1, (E)-4-((4-(4-(1H-1,2,3-triazol-1-yl)butyl)phenoxy)methyl-2-(4-trifluoromethyl)styryl)oxazole, reference compound], for which the EC50 (commonly the concentration needed to bring the measured effect to its halfway point) lay within 100 to 500 nM in the test on OCI-AML3 cells (setting [1]) and 50 to 100 nM in the test with MLL-AF9 cells (Mus musculus, 120 h, MLL-AF9 cells, 5 days of culture, CellTiterGlo). Turning to `FC(F)(F)Oc1ccc(/C=C/c2nc(COc3ccc(CCCCn4ccnn4)cc3)co2)cc1` [Compound 2], the EC50 in the test on OCI-AML3 cells (Homo sapiens, OCI-AML-3, 144 h) lay within 100 to 500 nM; with MLL-AF9 cells (Mus musculus, MLL-AF9, 120 h), 100 to 500 nM.

For `Fc1cc(Br)ccc1/C=C/c1nc(COc2ccc(CCCCn3ccnn3)cc2)co1` [Compound 3A, (E)-((4-(4-(1H-1,2,3-triazol-1-yl)butyl)phenoxy)methyl)-2-(4-bromo-2-fluorostyryl)oxazole], the EC50 in the test on OCI-AML3 cells (OCI-AML3 cells, 6 days of culture, CellTiterGlo) was < 50 nM; in the test on MLL-AF9 cells (MLL-AF9 cells, 5 days of culture, CellTiterGlo), < 50 nM.

As for `C[Si](C)(C)c1cn(CCCCc2ccc(OCc3coc(/C=C/c4ccc(Br)cc4F)n3)cc2)nn1` [Compound 3B, (E)-2-(4-Bromo-2-fluorostyryl)-4-((4-(4-(4-(trimethylsilyl)-1H-1,2,3-triazol-1-yl)butyl)phenoxy)methyl)oxazole], the EC50 with OCI-AML3 cells (setting [1]) was in the range of 500 to 1000 nM; with MLL-AF9 cells (Mus musculus, MLL-AF9, 120 h), 100 to 500 nM. Regarding `OCCc1cn(CCCCc2ccc(OCc3coc(/C=C/c4ccc(C(F)(F)F)cc4)n3)cc2)nn1` [Compound 4, (E)-2-(1-(4-(4-((2-(4-Trifluoromethyl)styryl)oxazol-4-yl)methoxy)phenyl)butyl-1H-1,2,3-triazol-4-yl)ethanol], the EC50 in the test on OCI-AML3 cells (Homo sapiens, OCI-AML-3, 144 h) was in the range of 1000 to 10000 nM; with MLL-AF9 cells (Mus musculus, MLL-AF9, 120 h), 500 to 1000 nM. On the same counts, the results for `OCCCCc1cn(CCCCc2ccc(OCc3coc(/C=C/c4ccc(C(F)(F)F)cc4)n3)cc2)nn1` [Compound 5] are 1000 to 10000 nM and 100 to 500 nM. With `CCOC(=O)c1nnn(CCCCc2ccc(OCc3coc(/C=C/c4ccc(C(F)(F)F)cc4)n3)cc2)c1C(=O)OCC` [Compound 6, (E)-diethyl 1-(4-(4-((2-(4-(trifluoromethyl)styryl)oxazol-4-yl)methoxy)phenyl)butyl)-1H-1,2,3-triazole-4,5-dicarboxylate], the concentration for a half-maximal effect (EC50) in the test on OCI-AML3 cells (Homo sapiens, OCI-AML-3, 144 h) was in the range of 1000 to 10000 nM; in the test with MLL-AF9 cells (Mus musculus, MLL-AF9, 120 h), 1000 to 10000 nM. As to `CNCc1cn(CCCCc2ccc(OCc3coc(/C=C/c4ccc(C(F)(F)F)cc4)n3)cc2)nn1` [Compound 7, (E)-N-methyl-1-(1-(4-(4-((2-(4-(trifluoromethyl)styryl)oxazol-4-yl)methoxy)phenyl)butyl)-1H-1,2,3-triazol-4-yl)methanamine], the EC50 in the test with OCI-AML3 cells (Homo sapiens, OCI-AML-3, 144 h) lay within 1000 to 10000 nM; in the test with MLL-AF9 cells (Mus musculus, MLL-AF9, 120 h), 500 to 1000 nM. On the same counts, the results for `OC1(c2cn(CCCCc3ccc(OCc4coc(/C=C/c5ccc(C(F)(F)F)cc5)n4)cc3)nn2)CCCC1` [Compound 8, (E)-1-(1-(4-(4-((2-(4-(trifluoromethyl)styryl)oxazol-4-yl)methoxy)phenyl)butyl)-1H-1,2,3-triazol-4-yl)cyclopentanol] are 500 to 1000 nM and 100 to 500 nM. As for `OCc1nnn(CCCCc2ccc(OCc3coc(/C=C/c4ccc(C(F)(F)F)cc4)n3)cc2)c1CO` [Compound 9, (E)-(1-(4-(4-((2-(4-(trifluoromethyl)styryl)oxazol-4-yl)methoxy)phenyl)butyl)-1H-1,2,3-triazole-4,5-diyl)dimethanol], the half-maximal effective concentration (EC50) in the test on OCI-AML3 cells (Homo sapiens, OCI-AML-3, 144 h) is 1000 to 10000 nM; in the test on MLL-AF9 cells (Mus musculus, MLL-AF9, 120 h), 500 to 1000 nM. Take `O=S1(=O)CCN(Cc2cn(CCCCc3ccc(OCc4coc(/C=C/c5ccc(C(F)(F)F)cc5)n4)cc3)nn2)CC1` [Compound 10, (E)-4-((1-(4-(4-((2-(4-(trifluoromethyl)styryl)oxazol-4-yl)methoxy)phenyl)butyl)-1H-1,2,3-triazol-4-yl)methyl)thiomorpholine 1,1-dioxide]: the EC50 in the test on OCI-AML3 cells (Homo sapiens, OCI-AML-3, 144 h) was 100 to 500 nM; in the test on MLL-AF9 cells (Mus musculus, MLL-AF9, 120 h), < 50 nM.

For the molecule `Fc1cc(C(F)(F)F)ccc1CCc1nc(COc2ccc(CCCCn3ccnn3)cc2)co1` [Compound 11, 4-((4-(4-(1H-1,2,3-triazol-1-yl)butyl)phenoxy)methyl)-2-(2-fluoro-4-(trifluoromethyl)phenethyl)oxazole], the EC50 was 1000 to 10000 nM with OCI-AML3 cells (Homo sapiens, OCI-AML-3, 144 h) and 1000 to 10000 nM in the test on MLL-AF9 cells (Mus musculus, MLL-AF9, 120 h).

In the case of `C#CCNC(=O)CCCCc1cn(CCCCc2ccc(OCc3coc(/C=C/c4ccc(C(F)(F)F)cc4)n3)cc2)nn1` [Compound 12, (E)-N-(prop-2-yn-1-yl)-5-(1-(4-(4-((2-(4-(trifluoromethyl)styryl)oxazol-4-yl)methoxy)phenyl)butyl)-1H-1,2,3-triazol-4-yl)pentanamide], the EC50 was in the range of 500 to 1000 nM in the test on OCI-AML3 cells (Homo sapiens, OCI-AML-3, 144 h) and 100 to 500 nM with MLL-AF9 cells (Mus musculus, MLL-AF9, 120 h).

In the case of `NCCc1cn(CCCCc2ccc(OCc3coc(/C=C/c4ccc(C(F)(F)F)cc4)n3)cc2)nn1` [Compound 13, (E)-2-(1-(4-(4-((2-(4-(trifluoromethyl)styryl)oxazol-4-yl)methoxy)phenyl)butyl)-1H-1,2,3-triazol-4-yl)ethanamine], the concentration for a half-maximal effect (EC50) with OCI-AML3 cells (Homo sapiens, OCI-AML-3, 144 h) is 1000 to 10000 nM; in the test with MLL-AF9 cells (Mus musculus, MLL-AF9, 120 h), 1000 to 10000 nM. As to `C#CCCC(=O)NCCc1cn(CCCCc2ccc(OCc3coc(/C=C/c4ccc(C(F)(F)F)cc4)n3)cc2)nn1` [Compound 14, (E)-N-(2-(1-(4-(4-((2-(4-(trifluoromethyl)styryl)oxazol-4-yl)methoxy)phenyl)butyl)-1H-1,2,3-triazol-4-yl)ethyl)pent-4-ynamide], the EC50 in the test on OCI-AML3 cells (Homo sapiens, OCI-AML-3, 144 h) is 1000 to 10000 nM; with MLL-AF9 cells (Mus musculus, MLL-AF9, 120 h) it was 500 to 1000 nM. The matching figures for `O=S1(=O)CCN(Cc2cnnn2CCCCc2ccc(OCc3coc(/C=C/c4ccc(C(F)(F)F)cc4)n3)cc2)CC1` [Compound 15, (E)-4-((1-(4-(4-((2-(4-(trifluoromethyl)styryl)oxazol-4-yl)methoxy)phenyl)butyl)-1H-1,2,3-triazol-5-yl)methyl)thiomorpholine 1,1-dioxide]: 500 to 1000 nM and 100 to 500 nM.

For `O=C(CCCn1ccnn1)c1ccc(OCc2coc(/C=C/c3ccc(C(F)(F)F)cc3)n2)cc1` [Compound 16, (E)-4-(1H-1,2,3-triazol-1-yl)-1-(4-((2-(4-(trifluoromethyl)styryl)oxazol-4-yl)methoxy)phenyl)butan-1-one], the EC50 in the test on OCI-AML3 cells (Homo sapiens, OCI-AML-3, 144 h) was in the range of 1000 to 10000 nM; in the test on MLL-AF9 cells (Mus musculus, MLL-AF9, 120 h), 100 to 500 nM. On the same counts, the results for `OC(CCCn1ccnn1)c1ccc(OCc2coc(/C=C/c3ccc(C(F)(F)F)cc3)n2)cc1` (stereo not shown) [Compound 17, (E)-4-(1H-1,2,3-triazol-1-yl)-1-(4-((2-(4-(trifluoromethyl)styryl)oxazol-4-yl)methoxy)phenyl)butan-1-ol] are 100 to 500 nM and 50 to 100 nM. The matching figures for `O=C(CCCn1ccnn1)c1ccc(OCc2coc(/C=C/c3ccc(OC(F)(F)F)cc3)n2)cc1` [Compound 18, (E)-4-(1H-1,2,3-triazol-1-yl)-1-(4-((2-(4-(trifluoromethoxy)styryl)oxazol-4-yl)methoxy)phenyl)butan-1-one]: 1000 to 10000 nM and 500 to 1000 nM. The matching figures for `OC(CCCn1ccnn1)c1ccc(OCc2coc(/C=C/c3ccc(OC(F)(F)F)cc3)n2)cc1` (stereo not shown) [Compound 19, (E)-4-(1H-1,2,3-triazol-1-yl)-1-(4-((2-(4-(trifluoromethoxy)styryl)oxazol-4-yl)methoxy)phenyl)butan-1-ol]: 100 to 500 nM and 100 to 500 nM.

Take `O=C(CCCn1ccnn1)c1ccc(OCc2coc(/C=C/c3ccc(Br)cc3F)n2)cc1` [Compound 20, (E)-1-(4-((2-(4-bromo-2-fluorostyryl)oxazol-4-yl)methoxy)phenyl)-4-(1H-1,2,3-triazol-1-yl)butan-1-one]: the EC50 was in the range of 500 to 1000 nM with OCI-AML3 cells (Homo sapiens, OCI-AML-3, 144 h) and 100 to 500 nM in the test on MLL-AF9 cells (Mus musculus, MLL-AF9, 120 h). As for `Fc1cc(C(F)(F)F)ccc1/C=C/c1nc(COc2ccc(CCCCn3cnnc3)cc2)co1` [Compound 135, (E)-4-((4-(4-(4H-1,2,4-triazol-4-yl)butyl)phenoxy)methyl)-2-(2-fluoro-4-(trifluoromethyl)styryl)oxazole], the EC50 with MLL-AF9 cells (Mus musculus, MLL-AF9, 120 h) was in the range of 500 to 1000 nM. For `O=CNCCCCc1ccc(OCc2coc(/C=C/c3ccc(C(F)(F)F)cc3F)n2)cc1` [Compound 136, (E)-N-(4-(4-((2-(2-fluoro-4-(trifluoromethyl)styryl)oxazol-4-yl)methoxy)phenyl)butyl)formamide], the EC50 in the test on MLL-AF9 cells (Mus musculus, MLL-AF9, 120 h) was 100 to 500 nM.

As for `O=S1(=O)CCN(CCCCc2ccc(OCc3coc(/C=C/c4ccc(C(F)(F)F)cc4F)n3)cc2)CC1` [Compound 137, (E)-4-(4-(4-((2-(2-fluoro-4-(trifluoromethyl)styryl)oxazol-4-yl)methoxy)phenyl)butyl)thiomorpholine 1,1-dioxide], in the test on MLL-AF9 cells (Mus musculus, MLL-AF9, 120 h), the EC50 fell in the range of 500 to 1000 nM. Consider `COc1cc2c(cc1OC)[C@@H]1C(=O)c3ccc4c(c3O[C@@H]1CO2)C=CC(C)(C)O4` [Deguelin, reference compound], for which the “sensitivity of OCI-AML3 relative to OCI-AML5” value in the test with OCI-AML3 cells was “more sensitive than OCI-AML5”. The same measure, in the same setting: next, `CC[C@H]1/C=C/C=C/C[C@@H](C)[C@H](O)[C@@](C)(O)C(=O)[C@@H](C)[C@H](O)[C@@H](C)C(=O)[C@@H](C)[C@H](O)[C@@H](C)/C=C/C(=O)O[C@@H]2[C@H](C)[C@H](CC1)O[C@]1(CC[C@H](C)[C@H](C[C@@H](C)O)O1)[C@H]2C` [Oligomycin, reference compound]: “more sensitive than OCI-AML5”; `C=C(C)[C@H]1Cc2c(ccc3c2O[C@@H]2COc4cc(OC)c(OC)cc4[C@@H]2C3=O)O1` [Rotenone, reference compound]: “more sensitive than OCI-AML5”. `CNC(=O)CN1CCC(Oc2cc3c(Nc4cccc(Cl)c4F)ncnc3cc2OC)CC1` [Sapitinib, reference compound]: the “OCI-AML3 cells sensitive to the compound (dose response)” value in the test on OCI-AML3 cells (OCI-AML3 cells) was “not”.
